Reference: ChEMBL document CHEMBL1201862, “PubChem BioAssay data set” (2004)
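How tested: cells in 96-well plates exposed to compound for 48 hours at five concentrations. GI50: concentration for 50% inhibition of growth.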 Active and inactive are the calls of the source. Cut-off read from the data, not from the text of the source: active = GI50 up to about 1.1 µM and inactive = higher.

What was measured:
Test in all cases: NCI-60 cell line screen, 48 h
OVCAR-5 = test system: OVCAR-5
NCI-H23 = test system: NCI-H23
CAKI-1 = test system: CAKI-1
SF-268 = test system: SF-268
HOP-92 = test system: HOP-92
SK-MEL-28 = test system: SK-MEL-28
SW-620 = test system: SW-620
SK-OV-3 = test system: SK-OV-3
NCI-H522 = test system: NCI-H522
COLO 205 = test system: COLO 205
SK-MEL-2 = test system: SK-MEL-2
OVCAR-4 = test system: OVCAR-4
IGROV-1 = test system: IGROV-1
K562 = test system: K562
EKVX = test system: EKVX
HCC 2998 = test system: HCC 2998
MOLT-4 = test system: MOLT-4

Measured: GI50

COc1ccc2nc(NC(=O)C(=O)C(C#N)c3ccc(Cl)c(Cl)c3)sc2c1 (configuration not stated)
inactive: OVCAR-5 > 100 µM | NCI-H23 75.9 µM | CAKI-1 > 100 µM | SF-268 79.8 µM | HOP-92 33.9 µM | SK-MEL-28 > 100 µM | SW-620 > 100 µM | SK-OV-3 > 100 µM | NCI-H522 36.9 µM | COLO 205 > 100 µM | SK-MEL-2 > 100 µM | OVCAR-4 > 100 µM | IGROV-1 > 100 µM | K562 > 100 µM | EKVX 88.9 µM

COC(=O)/C=C/C1C(C(=O)OC)C2(C(=O)OC)CCC1(C(=O)OC)N2 (configuration not stated)
inactive: OVCAR-5 > 100 µM | NCI-H23 > 100 µM | CAKI-1 > 100 µM | SF-268 > 100 µM | HOP-92 > 100 µM | SW-620 > 100 µM | SK-OV-3 > 100 µM | NCI-H522 > 100 µM | COLO 205 > 100 µM | HCC 2998 > 100 µM | SK-MEL-2 > 100 µM | OVCAR-4 > 100 µM | IGROV-1 > 100 µM | MOLT-4 > 100 µM | K562 > 100 µM | EKVX > 100 µM

O=C(c1ccc(O)cc1)C1c2c3c(cc(O)c2C(c2ccc(O)cc2)C1c1cc(O)cc(O)c1)OC(c1ccc(O)cc1)C3c1cc2c(cc1O)OC(c1ccc(O)cc1)C2c1cc(O)cc(O)c1 (configuration not stated)
inactive: OVCAR-5 > 12.5 µM | NCI-H23 > 12.5 µM | CAKI-1 > 12.5 µM | SF-268 > 12.5 µM | HOP-92 > 12.5 µM | SK-MEL-28 > 12.5 µM | SW-620 > 12.5 µM | NCI-H522 > 12.5 µM | COLO 205 > 12.5 µM | HCC 2998 > 12.5 µM | SK-MEL-2 > 12.5 µM | OVCAR-4 > 12.5 µM | MOLT-4 > 12.5 µM | K562 > 12.5 µM | EKVX > 12.5 µM

N#C/C(=C\c1ccc(O)cc1O)C(N)=O
inactive: OVCAR-5 > 100 µM | NCI-H23 58.1 µM | CAKI-1 58.1 µM | SF-268 > 100 µM | HOP-92 46.1 µM | SK-MEL-28 93.3 µM | SW-620 > 100 µM | SK-OV-3 45.6 µM | NCI-H522 28.3 µM | COLO 205 12.9 µM | HCC 2998 > 100 µM | SK-MEL-2 98.4 µM | OVCAR-4 > 100 µM | IGROV-1 > 100 µM | MOLT-4 58.6 µM | K562 > 100 µM | EKVX > 100 µM

CSc1nnc(CCC(=O)Nc2c(C)cccc2C)o1
inactive: OVCAR-5 > 100 µM | NCI-H23 > 100 µM | CAKI-1 > 100 µM | SF-268 > 100 µM | HOP-92 > 100 µM | SK-MEL-28 > 100 µM | SW-620 > 100 µM | SK-OV-3 > 100 µM | NCI-H522 > 100 µM | COLO 205 > 100 µM | HCC 2998 > 100 µM | SK-MEL-2 > 100 µM | OVCAR-4 > 100 µM | IGROV-1 > 100 µM | MOLT-4 > 100 µM | K562 > 100 µM | EKVX > 100 µM

COC(=O)[C@@H]1Cc2c([nH]c3ccccc23)[C@H](c2ccccc2)N1
inactive: OVCAR-5 > 100 µM | NCI-H23 54.1 µM | CAKI-1 60.5 µM | SF-268 41.7 µM | HOP-92 44.9 µM | SK-MEL-28 85.1 µM | SW-620 35.8 µM | SK-OV-3 34.4 µM | NCI-H522 21.7 µM | COLO 205 20 µM | HCC 2998 31.2 µM | SK-MEL-2 32.4 µM | OVCAR-4 43.6 µM | IGROV-1 22.8 µM | MOLT-4 41.4 µM | K562 45.2 µM | EKVX 44.2 µM

CC(c1cccc2ccccc12)/[N+]([O-])=C/c1ccccc1 (configuration not stated)
inactive: OVCAR-5 > 100 µM | NCI-H23 > 100 µM | SF-268 > 100 µM | HOP-92 29.5 µM | SK-MEL-28 > 100 µM | SW-620 > 100 µM | SK-OV-3 > 100 µM | NCI-H522 78.7 µM | COLO 205 > 100 µM | HCC 2998 > 100 µM | SK-MEL-2 > 100 µM | IGROV-1 > 100 µM | MOLT-4 > 100 µM | K562 > 100 µM | EKVX 70.8 µM

CCCc1ccc(/N=C\c2cc(OC)c(OC)c(OC)c2)cc1
inactive: OVCAR-5 > 100 µM | NCI-H23 > 100 µM | CAKI-1 > 100 µM | SF-268 > 100 µM | HOP-92 > 51.3 µM | SK-MEL-28 > 100 µM | SW-620 > 100 µM | SK-OV-3 > 100 µM | NCI-H522 > 59.2 µM | COLO 205 > 31.6 µM | SK-MEL-2 > 100 µM | OVCAR-4 > 100 µM | IGROV-1 > 100 µM | MOLT-4 > 100 µM | K562 36 µM | EKVX > 100 µM

CCCCCCCCNC(=O)SCCCC
inactive: OVCAR-5 37.2 µM | NCI-H23 38.5 µM | CAKI-1 21.3 µM | SF-268 34.9 µM | HOP-92 17.6 µM | SK-MEL-28 38.2 µM | SW-620 45.9 µM | SK-OV-3 > 100 µM | NCI-H522 24.4 µM | COLO 205 45.2 µM | SK-MEL-2 20.9 µM | OVCAR-4 36.7 µM | IGROV-1 46.5 µM | MOLT-4 22.5 µM | K562 34.4 µM | EKVX 29.4 µM

CC(C)C(=O)/C=C/c1ccccc1
inactive: OVCAR-5 > 100 µM | NCI-H23 63.8 µM | SF-268 > 100 µM | HOP-92 > 100 µM | SK-MEL-28 > 100 µM | SW-620 72.1 µM | SK-OV-3 > 100 µM | NCI-H522 31 µM | COLO 205 > 100 µM | HCC 2998 > 100 µM | SK-MEL-2 > 100 µM | OVCAR-4 > 100 µM | IGROV-1 > 100 µM | MOLT-4 54.3 µM | K562 33.7 µM

CN1COc2c(n(C)c(=O)[nH]c2=O)C1
inactive: OVCAR-5 > 100 µM | NCI-H23 > 100 µM | CAKI-1 > 47.8 µM | SF-268 > 100 µM | HOP-92 > 100 µM | SK-MEL-28 > 100 µM | SW-620 38.6 µM | SK-OV-3 > 100 µM | NCI-H522 > 100 µM | COLO 205 59 µM | HCC 2998 > 100 µM | SK-MEL-2 > 100 µM | OVCAR-4 > 100 µM | IGROV-1 > 100 µM | MOLT-4 > 100 µM | K562 > 100 µM | EKVX > 100 µM

O=c1[nH]c2c3ccccc3ccc2c2cc3c(cc12)OCO3
inactive: OVCAR-5 > 100 µM | NCI-H23 > 100 µM | CAKI-1 95.9 µM | SF-268 98.6 µM | SK-MEL-28 > 100 µM | SW-620 84.7 µM | SK-OV-3 > 100 µM | NCI-H522 42.5 µM | COLO 205 > 100 µM | HCC 2998 > 100 µM | SK-MEL-2 > 100 µM | OVCAR-4 > 100 µM | IGROV-1 > 100 µM | MOLT-4 40 µM | K562 38.5 µM | EKVX 49.2 µM
